Read-outs that look alike come from different tables or passages of the source. Where a SMILES comes first, the peptide text is derived from it. Bridges are numbered along the chain shown (N, C = ends). Where no end group is shown, it is not given here.
Columns and labels:
α4β1 [1] = biological target: T1, α4β1 (Homo sapiens, UniProt P05556+P13612); experiment: Jurkat cell adhesion to immobilized VCAM-1; assay type: cell-based
T1 construct: host or cells: Jurkat
Protocol: (§1) Adhesion of cultured cells labeled with 5-chloromethylfluorescein diacetate (CMFDA) was performed as described earlier (Marcinkiewicz et al., Blood 90:1565-1575 (1997)). […] Wells were blocked by 1% BSA in HBSS buffer. Cells were labeled with fluorescein by incubation with 12.5 AM CMFDA in HBSS buffer containing 1% BSA at 37° C. by 15 min. Unbound label was removed by washing with the same buffer. Labeled cells (1×10^5 per sample) were added to the well in the presence or absence of inhibitors and incubated at 37° C. for 30 min. Unbound cells were removed by aspiration, the wells were washed and bound cells were lysed by adding 0.5% Triton X-100. In parallel the standard curve was prepared in the same plate from known concentrations of labelled cells. The plate was read using a Cytofluor 2350 fluorescence plate reader (Millipore, Bedford, Mass.) at 485 nm EX(excitation) filter and 530 nm (emmision) filter.
The cell adhesion assay (as described in Example 1) was used to study the inhibitory effect of the eluted fractions on Jurkat cell adhesion to immobilized VCAM-1 and on K562 cell adhesion to fibronectin. Recombinant VCAM-1 (0.5 μg/well) or fibronectin (0.5 μg/well) were immobilized overnight at 4° C. on a 96-well plate (Falcon) in PBS buffer. After blocking, the CMFDA-labeled cells were added to each well in the presence of 5 μg per sample of protein from selected fractions.
Recombinant human VCAM-1 (0.5 μg/well) was immobilized in the wells of an ELISA plate overnight in PBS buffer. The plate was blocked using HBSS buffer containing 1% BSA. […] The plate was incubated for 30 minutes at 37° C. Unbound cells were removed by aspiration and the wells were washed with HBSS buffer.
(§2) The effect of each peptide on cell adhesion was determined as described above. […] Cells that attached to the plates were lysed with detergent, and fluorescence intensity was measured. Percent inhibition was measured at each concentration and IC50 was determined.

αIIbβ3 [2] = biological target: T2, αIIbβ3 (Homo sapiens, UniProt P05106+P08514); experiment: A5 (CHOαIIbβ3+) cell adhesion to immobilized fibrinogen; assay type: cell-based; conditions: A5 (CHOαIIbβ3+) cells, ligand Fg
Protocol: as §1, §2

αvβ3 = biological target: T3, αvβ3 (Homo sapiens, UniProt P05106+P06756); experiment: VNRC3 (CHOαvβ3+) cell adhesion to immobilized vitronectin; assay type: cell-based; conditions: VNRC3 (CHOαvβ3+) cells, ligand Vn
T3 construct: expressed in transfected cells; host or cells: CHO (VNRC3 cells), gift of Dr. M. Ginsberg
T3 sequence (P06756 31-889 limits assumed): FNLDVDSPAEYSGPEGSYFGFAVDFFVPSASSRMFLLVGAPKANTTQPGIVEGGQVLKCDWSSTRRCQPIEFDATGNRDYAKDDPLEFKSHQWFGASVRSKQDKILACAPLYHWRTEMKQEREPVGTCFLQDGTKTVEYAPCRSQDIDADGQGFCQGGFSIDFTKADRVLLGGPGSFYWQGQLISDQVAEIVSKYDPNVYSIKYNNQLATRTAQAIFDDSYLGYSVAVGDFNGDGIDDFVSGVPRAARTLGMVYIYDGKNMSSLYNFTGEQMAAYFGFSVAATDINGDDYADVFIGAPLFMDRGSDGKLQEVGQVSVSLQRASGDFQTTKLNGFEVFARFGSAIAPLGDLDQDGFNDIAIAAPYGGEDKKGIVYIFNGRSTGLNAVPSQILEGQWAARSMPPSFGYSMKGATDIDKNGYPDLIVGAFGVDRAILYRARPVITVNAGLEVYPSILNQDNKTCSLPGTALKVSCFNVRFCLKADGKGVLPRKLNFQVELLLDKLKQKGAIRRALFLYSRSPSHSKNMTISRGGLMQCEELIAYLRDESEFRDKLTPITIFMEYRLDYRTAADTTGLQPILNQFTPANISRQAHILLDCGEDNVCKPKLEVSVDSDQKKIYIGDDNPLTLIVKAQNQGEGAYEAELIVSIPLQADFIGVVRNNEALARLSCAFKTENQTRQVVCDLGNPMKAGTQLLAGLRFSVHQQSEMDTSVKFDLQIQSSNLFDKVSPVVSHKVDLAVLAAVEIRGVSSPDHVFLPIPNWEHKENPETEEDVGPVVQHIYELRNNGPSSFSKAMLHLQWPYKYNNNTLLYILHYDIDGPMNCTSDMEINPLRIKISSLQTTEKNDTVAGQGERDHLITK
T3 sequence (P06756 891-1048 partner limits assumed): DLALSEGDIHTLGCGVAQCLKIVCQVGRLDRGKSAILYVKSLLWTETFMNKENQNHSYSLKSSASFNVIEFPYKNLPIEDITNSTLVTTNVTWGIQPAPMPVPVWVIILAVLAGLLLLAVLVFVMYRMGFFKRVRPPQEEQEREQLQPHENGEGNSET
T3 sequence (P05106 27-788): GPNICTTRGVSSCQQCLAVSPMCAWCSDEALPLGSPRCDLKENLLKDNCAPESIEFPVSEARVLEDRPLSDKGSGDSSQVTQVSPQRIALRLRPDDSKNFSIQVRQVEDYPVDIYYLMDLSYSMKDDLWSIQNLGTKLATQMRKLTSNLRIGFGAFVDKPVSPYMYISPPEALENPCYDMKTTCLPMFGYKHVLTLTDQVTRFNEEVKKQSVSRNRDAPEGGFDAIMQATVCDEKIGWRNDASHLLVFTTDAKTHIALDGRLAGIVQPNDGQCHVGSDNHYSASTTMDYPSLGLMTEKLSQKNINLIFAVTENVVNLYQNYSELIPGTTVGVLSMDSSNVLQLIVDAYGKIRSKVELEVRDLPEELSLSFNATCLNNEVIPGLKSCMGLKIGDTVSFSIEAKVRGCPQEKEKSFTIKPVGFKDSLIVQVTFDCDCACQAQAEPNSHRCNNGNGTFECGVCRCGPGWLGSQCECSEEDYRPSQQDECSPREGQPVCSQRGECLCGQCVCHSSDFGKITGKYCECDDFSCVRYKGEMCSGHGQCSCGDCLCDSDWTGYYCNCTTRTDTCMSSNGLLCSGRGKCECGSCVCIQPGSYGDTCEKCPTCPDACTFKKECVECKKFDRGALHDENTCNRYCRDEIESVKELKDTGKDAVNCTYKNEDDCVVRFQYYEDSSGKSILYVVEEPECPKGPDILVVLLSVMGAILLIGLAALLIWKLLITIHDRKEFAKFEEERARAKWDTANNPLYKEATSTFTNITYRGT
Protocol: as §1, §2

α5β1 = biological target: T4, α5β1 (Homo sapiens, UniProt P05556+P08648); experiment: K562 cell adhesion to immobilized fibronectin; assay type: cell-based; conditions: 5 μg per sample of protein from fraction
T4 construct: host or cells: K562
T4 sequence (P08648 42-894 limits assumed): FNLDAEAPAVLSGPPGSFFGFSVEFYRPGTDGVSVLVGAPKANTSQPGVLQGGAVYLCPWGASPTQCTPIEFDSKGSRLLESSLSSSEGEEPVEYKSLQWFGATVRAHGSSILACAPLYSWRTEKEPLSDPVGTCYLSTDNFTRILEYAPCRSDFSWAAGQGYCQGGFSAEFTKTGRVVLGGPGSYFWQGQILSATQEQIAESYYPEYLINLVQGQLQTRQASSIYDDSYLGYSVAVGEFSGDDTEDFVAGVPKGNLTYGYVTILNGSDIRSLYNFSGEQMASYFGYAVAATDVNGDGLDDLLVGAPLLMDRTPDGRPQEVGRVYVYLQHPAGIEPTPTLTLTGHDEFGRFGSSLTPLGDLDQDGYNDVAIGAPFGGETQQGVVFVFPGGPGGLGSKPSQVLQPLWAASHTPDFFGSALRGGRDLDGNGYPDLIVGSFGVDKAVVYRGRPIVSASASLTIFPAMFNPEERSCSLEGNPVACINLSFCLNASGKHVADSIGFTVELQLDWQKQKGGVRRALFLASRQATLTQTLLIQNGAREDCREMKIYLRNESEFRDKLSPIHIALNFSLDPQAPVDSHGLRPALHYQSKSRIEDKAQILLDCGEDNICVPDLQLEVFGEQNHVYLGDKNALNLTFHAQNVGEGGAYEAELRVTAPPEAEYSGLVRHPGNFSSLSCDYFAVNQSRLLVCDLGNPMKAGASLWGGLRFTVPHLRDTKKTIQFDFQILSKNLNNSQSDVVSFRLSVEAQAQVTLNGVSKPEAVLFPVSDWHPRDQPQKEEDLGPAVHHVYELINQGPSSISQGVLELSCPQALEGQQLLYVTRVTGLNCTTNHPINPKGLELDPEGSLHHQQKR
T4 sequence (P08648 895-1049 partner limits assumed): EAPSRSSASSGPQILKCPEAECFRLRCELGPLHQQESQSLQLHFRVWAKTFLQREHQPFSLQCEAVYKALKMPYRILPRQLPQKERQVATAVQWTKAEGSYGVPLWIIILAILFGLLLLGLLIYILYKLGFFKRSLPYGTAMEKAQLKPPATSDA
T4 sequence (P05556 21-798): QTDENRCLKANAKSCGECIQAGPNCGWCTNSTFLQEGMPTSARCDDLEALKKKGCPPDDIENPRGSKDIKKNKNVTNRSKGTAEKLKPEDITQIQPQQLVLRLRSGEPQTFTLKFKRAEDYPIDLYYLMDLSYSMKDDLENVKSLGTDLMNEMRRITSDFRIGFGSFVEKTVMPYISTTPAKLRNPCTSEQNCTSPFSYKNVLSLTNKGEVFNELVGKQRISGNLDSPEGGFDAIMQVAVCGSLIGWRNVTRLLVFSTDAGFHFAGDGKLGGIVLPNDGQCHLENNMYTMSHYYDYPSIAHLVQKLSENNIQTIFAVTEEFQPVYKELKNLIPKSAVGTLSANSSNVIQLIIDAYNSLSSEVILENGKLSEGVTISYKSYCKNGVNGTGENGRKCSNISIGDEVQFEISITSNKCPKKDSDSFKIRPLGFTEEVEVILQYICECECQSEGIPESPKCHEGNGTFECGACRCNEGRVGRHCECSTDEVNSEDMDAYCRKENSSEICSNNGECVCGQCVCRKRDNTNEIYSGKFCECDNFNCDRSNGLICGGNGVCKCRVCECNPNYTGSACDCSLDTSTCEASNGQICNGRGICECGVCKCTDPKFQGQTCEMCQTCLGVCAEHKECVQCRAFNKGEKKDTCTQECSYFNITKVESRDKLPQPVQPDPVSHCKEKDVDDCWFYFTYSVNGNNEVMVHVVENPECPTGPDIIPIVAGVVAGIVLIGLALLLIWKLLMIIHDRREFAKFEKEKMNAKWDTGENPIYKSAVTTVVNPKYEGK
Protocol: as §1

α6β1 = biological target: T5, α6β1 (Homo sapiens, UniProt P05556+P23229); experiment: K562 (α6+) cell adhesion to laminin; assay type: cell-based
T5 construct: expressed in transfected cells; host or cells: K562 transfected with α6
T5 sequence (P23229 24-938 limits assumed): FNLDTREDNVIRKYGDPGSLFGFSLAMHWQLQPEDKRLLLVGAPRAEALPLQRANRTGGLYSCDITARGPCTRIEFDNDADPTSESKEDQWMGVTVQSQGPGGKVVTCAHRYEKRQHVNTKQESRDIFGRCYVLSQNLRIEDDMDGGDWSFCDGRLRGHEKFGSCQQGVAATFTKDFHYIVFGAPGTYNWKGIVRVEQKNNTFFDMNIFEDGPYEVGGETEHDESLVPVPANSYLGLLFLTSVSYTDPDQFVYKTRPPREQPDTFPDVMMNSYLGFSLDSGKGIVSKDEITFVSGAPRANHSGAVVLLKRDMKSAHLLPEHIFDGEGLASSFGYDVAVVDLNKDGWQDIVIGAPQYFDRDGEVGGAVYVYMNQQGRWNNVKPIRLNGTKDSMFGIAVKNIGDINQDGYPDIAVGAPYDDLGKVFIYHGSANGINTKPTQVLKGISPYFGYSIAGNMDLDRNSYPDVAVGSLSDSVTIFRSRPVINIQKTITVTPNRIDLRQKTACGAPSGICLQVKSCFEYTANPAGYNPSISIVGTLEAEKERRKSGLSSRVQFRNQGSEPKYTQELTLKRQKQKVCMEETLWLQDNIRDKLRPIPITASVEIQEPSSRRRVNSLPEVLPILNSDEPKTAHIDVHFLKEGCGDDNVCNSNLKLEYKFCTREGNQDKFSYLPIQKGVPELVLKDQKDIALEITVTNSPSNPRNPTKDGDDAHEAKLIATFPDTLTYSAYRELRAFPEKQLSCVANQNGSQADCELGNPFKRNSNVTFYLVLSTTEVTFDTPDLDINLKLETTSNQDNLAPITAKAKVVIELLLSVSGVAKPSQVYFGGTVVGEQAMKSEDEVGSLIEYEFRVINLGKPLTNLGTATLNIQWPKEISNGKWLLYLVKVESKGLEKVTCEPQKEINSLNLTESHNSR
T5 sequence (P23229 942-1130 partner limits assumed): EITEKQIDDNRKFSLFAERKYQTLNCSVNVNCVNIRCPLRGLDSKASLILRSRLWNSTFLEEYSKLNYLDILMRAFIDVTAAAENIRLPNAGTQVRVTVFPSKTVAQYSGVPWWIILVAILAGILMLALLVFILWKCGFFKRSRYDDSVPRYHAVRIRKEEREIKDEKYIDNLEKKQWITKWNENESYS
T5 sequence (P05556 21-798): as the sequence (P05556 21-798) above
Protocol: as §1, §2

α4β7 = biological target: T6, α4β7 (Homo sapiens, UniProt P13612+P26010); experiment: RPMI 8866 cell adhesion to MadCAM-1; assay type: cell-based; conditions: RPMI 8866 cells, α4β7, ligand MadCAM-1
T6 construct: endogenous in cells; host or cells: JY cells (A11); RPMI 8866 cells (A12)
Protocol: as §1, §2

αIIbβ3, αvβ3, α5β1 = experiment: Panel of RGD-selective integrin assays (platelet aggregation and cell adhesion); assay type: cell-based; conditions: range over the panel (Table 1); read-out: concentrations of potent inhibition of αIIbβ3-dependent platelet aggregation and αIIbβ3-, αvβ3-, α5β1-dependent cell adhesion
Protocol: as §2
(§3) Blood from a healthy donor was collected into a syringe containing sodium citrate as an anticoagulant. The anticoagulated blood was centrifuged at 400 g for 17 minutes, and platelet rich plasma (PRP) was removed by aspiration.

α4β1 and α4β7 integrins = experiment: Panel of α4 integrin cell adhesion assays; assay type: cell-based; conditions: at 10 μM
Protocol: as §1, §2

[3] = test system: lymphocyte infiltration of pancreatic Langerhans islets; experiment: Lymphocyte infiltration of Langerhans islets in Non Obese Diabetic (NOD) mice; assay type: in vivo, mouse; conditions: for effect on lymphocyte infiltration in pancreatic islets of NOD mice (in words): i.p. three times per week, nine weeks
Protocol: Female NOD mice from […] of age were purchased from Jackson Laboratory (Bar Harbor, Me.).
After nine weeks of treatment the animals were sacrificed by exposure to CO2. The pancreas was removed, frozen, and stored at −70° C. until the histological analysis. For the histological analysis, five μm sections of frozen tissue were fixed with acetone. For detection of infiltrating lymphocytes, the sections were stained with hematoxylin/eosin, and observed by light microscopy.

αIIbβ3 [4] = biological target: T2, αIIbβ3; experiment: ADP-induced platelet aggregation in platelet rich plasma (ADP PA); assay type: cell-based; design: endogenous in cells; host or cells: platelets in platelet rich plasma; conditions: Platelets, αIIbβ3, ligand Fg, 30 μM ADP
Protocol: as §3

α4β1 [5] = biological target: T7, α4β1 (UniProt G3HZ55+P13612); experiment: A2 (CHOα4+) cell adhesion to immobilized VCAM-1; assay type: cell-based, human; design: expressed in transfected cells; host or cells: CHO (A2 cells, α4+ α5+), gift of Dr. Y. Takada; conditions: A2 (CHOα4+) cells, ligand VCAM-1
Protocol: as §1, §2

α4β1 [6] = biological target: T7, α4β1; experiment: α4B2 (CHOα4+/α5−) cell adhesion to immobilized VCAM-1; assay type: cell-based, human; design: expressed in transfected cells; host or cells: B2 CHO cells (α5-deficient), gift of Dr. Y. Takada; conditions: α4B2 (CHOα4+/α5−) cells, ligand VCAM-1
Protocol: as §1
Chinese hamster ovary cells transfected with human α4 integrin were provided by Dr. Y. Takada (Scripps Research Institute, La Jolla, Calif.). […] The bound cells were lysed with 0.5% Triton X-100, and fluorescence was measured.
as §2

Jurkat cells = experiment: Adhesion of Jurkat cells to immobilized EC3; assay type: cell-based; conditions: 1 mM
Protocol: as §1
The adhesion study was performed using CMFDA-labeled Jurkat cells in the absence or presence 1 mM GRGDSP or GRGESP, or 10 μg/ml HP 2/1. Competition between EC3 and HP2/1 was also confirmed in cell suspension using FACS analysis. […] The experiment was performed using flow cytometry. […] The samples were fixed by addition of 1% paraformaldehyde before measurement of fluorescence intensity.

MV3 cells = conditions: immune deficient mice; cited from earlier work
αIIbβ3 [7] = biological target: T2, αIIbβ3; design: endogenous in cells; host or cells: platelets in platelet rich plasma; conditions: after reduction and ethylpyridylethylation; Calvete et al.; cited from earlier work
α4β1 (VLA-4) integrin = conditions: rabbit cardiac allografts; cited from earlier work

In the case of `CSCC[C@@H]1NC(=O)[C@H](C)NC(=O)[C@H](CCCNC(=N)N)NC(=O)[C@H](CCCCN)NC(=O)[C@@H](N)CSSC[C@@H](C(=O)O)NC(=O)[C@H](Cc2ccc(O)cc2)NC(=O)[C@H](CC(=O)O)NC(=O)[C@H](CC(N)=O)NC(=O)[C@H](CC(C)C)NC(=O)CNC(=O)[C@H](CC(=O)O)NC(=O)[C@H](CC(C)C)NC1=O` (H-CKRAMLDGLNDYC-OH; disulfide 1-13), the IC50 (α4β1 [1]) is reported as 1000 µM and the “activity relative to MLDG in molar ratio” value (α4β1 [1]; Jurkat cells / VCAM-1) is reported as “five fold more active”.

In the case of CKRAMLA^7GLNDYC, the “inhibition of Jurkat cell adhesion to immobilized VCAM-1 (in words)” value (α4β1 [1]) is reported as “no significant activity”.

For “Echistatin (ECESGPCCRNCKFLKEGTICKRARGDDMDDYCNGKTCDCPRNPHKGPAT) [reference compound]”, the IC50 (αIIbβ3 [2]) was 0.05 µM, the IC50 (αvβ3) was 0.05 µM and the “inhibition of binding of K562 cells to immobilized fibronectin” value (α5β1) was “inhibited binding”. The IC50 (α6β1; K562 (α6+) cells, α6β1, ligand Lm) was over 10 µM, the “inhibition of adhesion to laminin of K562 cells transfected with α6” value (α6β1; at concentration 10 μM) was “neither echistatin nor EC3 inhibited” and the IC50 (α4β1 [1]; Jurkat cells, ligand VCAM-1, read-out: IC50, cell adhesion) was over 10 µM. For the same compound, the IC50 (α4β7) was over 10 µM, the IC50 (αIIbβ3, αvβ3, α5β1) was 0.02 to 0.13 µM and the “activity in α4 integrin cell adhesion assays” value (α4β1 and α4β7 integrins) was “no detectable activity”. The “Number of Islets, Infiltration Score ++” value ([3]; ++ = ⅓ of the islet infiltrated, of 27 (echistatin) or 29 (EC-3) islets, nine weeks i.p.) was 10, the “Number of Islets, Infiltration Score +++” value ([3]; +++ = ½ or more of the islet infiltrated, of 27 (echistatin) or 29 (EC-3) islets, nine weeks i.p.) was 10 and the “Number of Animals without infiltration” value ([3]; NOD mice, i.p. three times per week for nine weeks, echistatin 1 μg/mouse, EC-3 3 μg/mouse, 10 animals per group) was 0. The “effect on lymphocyte infiltration in pancreatic islets of NOD mice (in words)” value ([3]; echistatin 1 μg/mouse, EC-3 3 μg/mouse) was “inactive”, the “effect on lymphocyte infiltration in pancreatic islets of NOD mice (in words)” value ([3]; echistatin 1 μg/mouse, EC-3 3 μg/mouse, listed as echistatin) was “ineffective” and the “Number of Islets, Infiltration Score −” value ([3]; − = no infiltration, of 27 (echistatin) or 29 (EC-3) islets, nine weeks i.p.) was 5. For the same compound, the IC50 (αIIbβ3 [4]) was 0.13 µM, the IC50 (α4β1 [5]) was over 10 µM and the IC50 (α4β1 [6]) was over 10 µM.

In the case of GRGDSP, the “effect on adhesion of Jurkat cells to immobilized EC3” value (Jurkat cells) is reported as “not effective”.

For RGDS [reference compound], the “inhibition of Jurkat cell adhesion to immobilized VCAM-1” value (α4β1 [1]; at this concentration (5 mM)) was “inactive”.

For “eristostatin: short disintegrin, potent inhibitor of αIIbβ3, SEQ ID NO:8 (QEEPCATGPCCRRCKFKRAGKVCRVARGDWNDDYCTGKSCDCPRNPWNG; ends and bridges not checked; cysteine pairing not given here; listed as Eristocophis macmahonii)”, the “effect on human melanoma cell (MV3) metastases” value (MV3 cells) is listed as “inhibits human melanoma cell (MV3) metastases”.

For “flavoridin: medium size disintegrin, SEQ ID NO:10”, the “decrease of ability to inhibit ADP-induced platelet aggregation” value (αIIbβ3 [7]) is given as about 40 fold.

For “phenylacetic acid-Leu-Asp-Phe-d-Pro-amide [CS-1 peptide]”, the “effect on accelerated coronary arteriopathy” value (α4β1 (VLA-4) integrin) is listed as “reduces accelerated coronary arteriopathy”.

Source: patent US6818617B1 (Temple University- Of The Commonwealth System of Higher …, priority 1997, dated 2004)
